Experiments:
SPOP^MATH = target: T1, SPOP^MATH (Homo sapiens, UniProt O43791); test: fluorescence polarization, displacement of FITC-puc_SBC1 peptide; assay type: binding
T1 construct: MATH domain, residues 28-166; GST tag cut with PreScission protease; E. coli BL21-CodonPlus (DE3)-RIPL

RNF130 = target: T2, RNF130 (Homo sapiens, UniProt Q86XS8); test: ITC; assay type: binding; details: […] RNF130 in cell, […] compound injected; N = […]
T2 construct: residues 1-304, C-terminal His8-Flag tag kept, expressed in Expi-293F
T2 sequence (Q86XS8 28-304 limits assumed): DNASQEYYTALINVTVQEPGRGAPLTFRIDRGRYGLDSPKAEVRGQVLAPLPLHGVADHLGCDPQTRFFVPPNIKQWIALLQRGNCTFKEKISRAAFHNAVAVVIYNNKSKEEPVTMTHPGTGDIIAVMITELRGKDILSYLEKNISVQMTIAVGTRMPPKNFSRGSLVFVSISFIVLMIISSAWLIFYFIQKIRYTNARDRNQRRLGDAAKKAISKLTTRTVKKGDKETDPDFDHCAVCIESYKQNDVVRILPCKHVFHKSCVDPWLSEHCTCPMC

ARF1^WT (Δ17ARF1) [1] = target: T3, ARF1^WT (Δ17ARF1) (Homo sapiens, UniProt P84077); test: protein thermal shift (SYPRO Orange); intact-protein and tandem MS; assay type: binding; details: […] protein, covalent at C159
T3 construct: N-terminally truncated (first 17 residues removed), His6-tag (pProEX HTb), E. coli BL21-CodonPlus (DE3)-RIPL

ARF1^WT (Δ17ARF1) [2] = target: T4, ARF1^WT (Δ17ARF1) (Homo sapiens, UniProt P84077, C159A); test: protein thermal shift (SYPRO Orange); assay type: binding; details: no covalent adduct by mass spectrometry
T4 construct: N-terminally truncated (first 17 residues removed), His6-tag (pProEX HTb), E. coli BL21-CodonPlus (DE3)-RIPL
Source text: protein thermal shift (SYPRO Orange) on ARF1^WT (Δ17ARF1) | PPIs with ARF1^C159A where C159 was mutated to alanine. No Tm shifts were observed

ARF1^WT (Δ17ARF1) [3] = target: T3, ARF1^WT (Δ17ARF1); test: GDP/MANT-GTP nucleotide exchange, fluorescence; assay type: biochemical; details: exchange catalysed by […] human ARNO Sec7 ([…]-250)

T3 sequence (P84077 18-181, stated change not applied): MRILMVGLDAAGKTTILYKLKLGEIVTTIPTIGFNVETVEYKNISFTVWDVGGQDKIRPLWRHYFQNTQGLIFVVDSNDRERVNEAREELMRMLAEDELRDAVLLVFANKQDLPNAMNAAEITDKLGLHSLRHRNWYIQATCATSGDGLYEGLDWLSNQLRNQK
T1 sequence (O43791 28-166): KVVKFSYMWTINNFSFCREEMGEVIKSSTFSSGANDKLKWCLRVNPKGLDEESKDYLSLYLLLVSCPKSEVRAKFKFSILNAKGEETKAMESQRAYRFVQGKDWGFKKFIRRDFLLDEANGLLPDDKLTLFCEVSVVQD
T4 sequence (P84077 18-181 C159A): as the sequence (P84077 18-181, stated change not applied) above, with C142A counted along it

SMILES: Cc1nnc(SCC2=C(C(=O)O)N3C(=O)C(NC(=O)c4ccc(COc5ccccc5Cl)o4)C3SC2)s1 (stereo not drawn) [221C7]
- IC50 (SPOP^MATH): 4.51 µM

SMILES: C=CC1=C(C(=O)O)N2C(=O)[C@@H](NC(=O)CCC3CCCC3)[C@H]2SC1 [222A5, (6R,7R)−7-(3-cyclopentylpropanamido)−8-oxo-3-vinyl-5-thia-1-azabicyclo[4.2.0]oct-2-ene-2-carboxylic acid]
- IC50 (SPOP^MATH): > 100 µM

SMILES: CS(=O)(=O)c1nnc(CN2C3C=C(c4ccccc4)CC2CC3)s1 (stereo not drawn) [iRNF130-63]
- Kd (RNF130): 1.23 µM

SMILES: Cc1c(OCC(F)(F)F)ccnc1C[S+]([O-])c1nc2ccccc2[nH]1 (stereo not drawn) [lansoprazole]
- Tm shift (ARF1^WT (Δ17ARF1) [1]; no DTT): PPIs could bind directly to wild-type ARF1 (ARF1^WT) and destabilize the protein

SMILES: COc1ccc2[nH]c([S+]([O-])Cc3ncc(C)c(OC)c3C)nc2c1 (stereo not drawn) [omeprazole]
- Tm shift (ARF1^WT (Δ17ARF1) [1]; no DTT): PPIs could bind directly to wild-type ARF1 (ARF1^WT) and destabilize the protein

SMILES: COc1ccnc(C[S+]([O-])c2nc3cc(OC(F)F)ccc3[nH]2)c1OC (stereo not drawn) [pantoprazole]
- Tm shift (ARF1^WT (Δ17ARF1) [1]; no DTT): PPIs could bind directly to wild-type ARF1 (ARF1^WT) and destabilize the protein

SMILES: COCCCOc1ccnc(C[S+]([O-])c2nc3ccccc3[nH]2)c1C (stereo not drawn) [rabeprazole]
- Tm shift (ARF1^WT (Δ17ARF1) [1]; no DTT; […] compound): PPIs could bind directly to wild-type ARF1 (ARF1^WT) and destabilize the protein
- Tm shift (ARF1^WT (Δ17ARF1) [2]): PPIs with ARF1^C159A where C159 was mutated to alanine. No Tm shifts were observed
- GDP/MANT-GTP nucleotide exchange, fluorescence (ARF1^WT (Δ17ARF1) [3]): rabeprazole suppressed the nucleotide exchange process in a concentration-dependent manner

Source: PMC10349078, “Sequence-based drug design as a concept in computational drug design” (Nature Communications, 2023)
